Patent US20060024708A1, “Porcine sulfotransferase 2A1 polynucleotide sequence, protein, and methods of use for same” (UNIVERSITY OF GUELPH, priority 2004, published 2006)

Assays:
[1] = test system: sulfotransferase activity towards 5α-androstenone in Leydig cells; test: Inhibition studies: production of sulfoconjugated 16-androstene steroids from radiolabelled pregnenolone by purified Leydig cells; type: cell-based, boar; details: for production of sulfoconjugated 16-androstene steroids from pregnenolone: 8 hours, 0, 5, 10, 50 or 100 μM inhibitor
Method: Purified Leydig cells were resuspended (50×10^6 cells/incubation) into a final volume of 25 ml of Williams Media E mixture. Radiolabelled [7-^3H(N)]-pregnenolone (3.4μCi/μmol) was added as a substrate to give a final concentration of 0.4 μmol/incubation. Leydig cells were incubated for a total of 8 hours at 37° C. under 95%:5% CO2 atmosphere at in a Dubnoff shaking waterbath in the presence of 0, 5, 10, 50, or 100 μM of various sulfotransferase inhibitors. 8 hour incubations were used, as this is an optimal time-point for steroid conjugation under these conditions. […] Estrone was used as an EST-inhibitor. The sulfotransferase activity towards 5α-androstenone was determined by HPLC analysis of extracted 5 ml media aliquots.
Prior to analysis, conjugated steroids were separated from unconjugated steroids with the use of Sep-Pak C18 solid-phase chromatography cartridges as described previously (Raeside et al., 1997). After separation, the conjugate fraction was hydrolyzed overnight in trifluroacetic acid/ethyl acetate (1/100 v/v) at 45° C. in order to liberate the sulfoconjugated steroids (Raeside et al., 1999b). The solvolyzed steroids were then re-extracted by solid-phase chromatography. Enzyme hydrolysis was performed on the remaining conjugated material present after solvolysis with 1250 units of β-glucuronidase (type B-1, from bovine liver), and incubated overnight at 37° C.
The unconjugated and hydrolyzed steroids from the inhibition studies were analyzed by HPLC using the same protocol as stated above; however; radiolabelled steroids were measured on-line with a Canberra-Packard 500TR flow scintillation analyzer.

Leydig cells = test: Viability of isolated Leydig cells (trypan blue exclusion test); type: cell-based, boar; details: 100 μM, 8 h of exposure
Method: After the slaughter of group A boars, bulbourethral glands were removed and measured for length. A backfat sample was removed from the midline on the point of the 11th rib and frozen at −20° C. until assayed for 5α-androstenone. Testes samples were obtained from five randomly selected animals immediately after slaughter. Testes were transported to the laboratory within five minutes of their removal from the boar. One testis was dissected free from the epididymis, cut longitudinally, and decapsulated. The tissue was sliced and 100 g of tissue was incubated for 12 min in a shaking water bath at 37° C. with 1 mg/mL collagenase (type 1A), 50 μg/mL trypsin inhibitor, and 50 μg/mL DNase in 250 mL of Williams Media E containing 1 g/L bovine serum albumin and 0.1 g/L L-glutamine. Purified Leydig cells were obtained by layering the collagenase dispersed cells onto discontinuous Percoll gradients (Raeside and Renaud, 1983). Cell viability was determined with a trypan blue exclusion test. The typical viability of the isolated Leydig cells was 90%.
Purified Leydig cells were resuspended (50×10^6 cells/incubation) into a final volume of 25 ml of Williams Media E mixture. […] The sulfotransferase activity towards 5α-androstenone was determined by HPLC analysis of extracted 5 ml media aliquots.

rat SULT2A1 gene = details: Makishima et al., 1999; cited from earlier work
HST = details: Okuda et al., 1989; Singer et al., 1984; cited from earlier work

Row | SMILES | production of the unconjugated forms of the 16-androstene steroids ([1]; Leydig cells treated with inhibitor, 8 hours) | production of sulfoconjugated 16-androstene steroids from pregnenolone ([1]; Leydig cells) | production of sulfoconjugated 16-androstene steroids at the 100 μM level ([1]; Leydig cells, 8 hours, 100 μM inhibitor) | viability of the Leydig cells (Leydig cells) | induction of the rat SULT2A1 gene (rat SULT2A1 gene) | inhibition of HST (HST)
1 | CCN(CC)CC [Triethylamine] | increased production | decreased production | near zero levels | 85% |  | 
2 | C[C@H](CCC(=O)O)[C@H]1CC[C@H]2[C@@H]3[C@H](O)C[C@@H]4C[C@H](O)CC[C@]4(C)[C@H]3CC[C@]12C [Chenodeoxycholic acid] |  |  |  |  | strong inducer | 
3 | Oc1c(Cl)c(Cl)c(Cl)c(Cl)c1Cl [PCP, Pentachlorophenol] |  | no effect |  | less than 50% |  | does not inhibit
